The results in this text go back to patent publication US10307425B2, “Compositions and methods for treating toxoplasmosis, cryptosporidiosis and other apicomplexan protozoan related diseases” (UNIVERSITY OF WASHINGTON, priority 2015, dated 2019).

One series in a line: in vivo. The conditions noted are these: BALB/c, mouse, po, 10 mg/kg.
Another series has as its system SnCDPK1. As to the kind of experiment: Recombinant SnCDPK1 inhibition. The format is biochemical, Sarcocystis neurona.
The next series has as its target BbCDPK1 (Besnoitia besnoiti, UniProt A0A290U7L2). In words: BbCDPK1 inhibition. The format is biochemical.
Series [1] relates to N. caninum. In words: N. caninum in vitro cultures. In kind it is cell-based, Neospora caninum.
The subject of a further series is S. neurona merozoites. As to the kind of experiment: S. neurona growth assay (yellow fluorescent protein-expressing clone). The conditions noted are these: Sarcocystis neurona, read-out: S. neurona EC50.
In series [2] the test system is N. caninum. As to the kind of experiment: Treatment of non-pregnant and pregnant Balb/c mice infected with N. caninum. In kind it is in vivo, Neospora caninum.
A further series deals with Besnoitia besnoiti. In words: Besnoitia besnoiti in vitro activity. The format is cell-based.
For series [3] the following is noted: pH 6.5.
The next series addresses TgCDPK1 (Toxoplasma gondii, UniProt Q9BJF5). As to the kind of experiment: biochemical.
Another series is described as follows: physchem. As to conditions: water, pH 6.5, aqueous buffer.
The nature of series [4]: Rat PK following IV and PO dosing. As to conditions: rats, PO vs IV.

SMILES strings stand for the structures. Values after ≈ are worked out from the molar mass of the structure shown. Like-named read-outs stand apart in the source and are kept apart here.

Sequence of TgCDPK1 (Q9BJF5 1-507): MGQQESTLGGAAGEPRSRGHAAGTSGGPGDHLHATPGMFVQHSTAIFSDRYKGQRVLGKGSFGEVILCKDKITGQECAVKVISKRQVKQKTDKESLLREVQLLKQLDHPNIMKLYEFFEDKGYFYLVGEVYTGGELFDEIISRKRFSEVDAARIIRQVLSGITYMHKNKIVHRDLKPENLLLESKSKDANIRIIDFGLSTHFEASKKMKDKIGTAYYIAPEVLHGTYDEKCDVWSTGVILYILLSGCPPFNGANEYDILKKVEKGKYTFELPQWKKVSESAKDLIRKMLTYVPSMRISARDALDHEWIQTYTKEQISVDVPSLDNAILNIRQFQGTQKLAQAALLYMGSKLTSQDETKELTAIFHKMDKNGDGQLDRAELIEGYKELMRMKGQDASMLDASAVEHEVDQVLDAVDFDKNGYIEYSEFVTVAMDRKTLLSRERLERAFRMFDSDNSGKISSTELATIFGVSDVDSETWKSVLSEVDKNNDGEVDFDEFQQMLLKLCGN
Sequence of BbCDPK1 (A0A290U7L2 1-497): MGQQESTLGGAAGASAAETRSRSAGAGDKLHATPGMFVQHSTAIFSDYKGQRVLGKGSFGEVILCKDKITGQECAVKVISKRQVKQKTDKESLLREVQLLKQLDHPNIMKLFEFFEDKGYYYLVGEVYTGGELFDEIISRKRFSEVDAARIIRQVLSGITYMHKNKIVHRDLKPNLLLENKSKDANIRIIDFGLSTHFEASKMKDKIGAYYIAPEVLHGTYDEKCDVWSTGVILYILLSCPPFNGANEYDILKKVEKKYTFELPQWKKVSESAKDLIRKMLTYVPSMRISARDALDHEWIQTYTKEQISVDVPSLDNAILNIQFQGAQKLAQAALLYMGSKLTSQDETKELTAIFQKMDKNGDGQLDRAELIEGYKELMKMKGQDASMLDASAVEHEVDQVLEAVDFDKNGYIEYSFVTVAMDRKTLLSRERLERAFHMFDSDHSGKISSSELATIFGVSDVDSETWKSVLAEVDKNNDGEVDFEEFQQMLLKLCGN

In the case of `CCOc1ccc2cc(-c3nn(CC4CCN(C)CC4)c4ncnc(N)c34)ccc2c1` [Compound 150], the highest level in “in vivo” (Cmax) was 750 ± 150 nM. For the same molecule, the IC50 in the series with SnCDPK1 is 5.9 nM; at BbCDPK1 it was 4 nM. The “activity against N. caninum in vitro” value in the series with N. caninum [1] is listed as “effective in treating N. caninum in vitro”. The half-maximal effective concentration (EC50) in the series with S. neurona merozoites turned out to be 68 nM; in the series with Besnoitia besnoiti (Besnoitia besnoiti, read-out: B. besnoiti EC50), 45 nM. Further, the “treatment of N. caninum infected mice” value with N. caninum [2] is “treats infected mice and rids of N. caninum infection in brain and fetuses”. The “B. besnoiti EC100” value in the series on Besnoitia besnoiti was 2.580 µM.
In the series “in vivo” (female), `CC(C)(CO)Cn1nc(-c2ccc3cc(OC4CC4)ccc3c2)c2c(N)ncnc21` [Example 26, 3-(4-Amino-3-(6-cyclopropoxynaphthalen-2-yl)-1H-pyrazolo[3,4-d]pyrimidin-1-yl)-2,2-dimethylpropan-1-ol] had a peak concentration (Cmax) of 390 ± 160 nM. In series [3], this molecule showed a Solubility of 6.2 µM (≈ 2.5 µg/mL).
Take `COc1ccc2cc(-c3nn(CC4CCOCC4)c4ncnc(N)c34)ccc2n1` [Example 27, 3-(2-methoxyquinolin-6-yl)-1-((tetrahydro-2H-pyran-4-yl)methyl)-1H-pyrazolo[3,4-d]pyrimidin-4-amine]: in the series “in vivo” (female), the Cmax is 3900 ± 1100 nM, the Tmax was 30 min and the half-life is 41 ± 21 min. Further, the IC50 at TgCDPK1 was 21.2 nM. This molecule had a Solubility in “physchem” of 8 µM (≈ 3.12 µg/mL).
`CC(C)Cn1nc(-c2ccc3cc(OCC(C)(C)O)ccc3c2)c2c(N)ncnc21` [Example 33, 1-(6-(4-amino-1-isobutyl-1H-pyrazolo[3,4-d]pyrimidin-3-yl)naphthalen-2-yloxy)-2-methylpropan-2-ol] came in with an IC50 on TgCDPK1 of 5.7 nM. Moreover, the “bioavailability (in words)” value in series [4] was “essentially complete bioavailability”.

One may read the Cmax as the maximum level reached in the sampled fluid or tissue. By IC50 is commonly meant the midpoint of a concentration-inhibition curve. Usually EC50 stands for the concentration needed to bring the measured effect to its halfway point. As a reminder, the Solubility is the dissolved amount per volume that the medium holds. What is called Tmax is the time from dosing to the highest level. A word on the half-life: it is the time needed for the level to fall by half in the phase considered. Read a low half-life as rapid decline.
